Source: patent US8148400B2, “Thiazolyl compounds useful as kinase inhibitors” (Bristol-Myers Squibb Company, priority 2006, dated 2012)
Structures can show the parent of a compound that is named as a salt.

Molecular target: IGF1-receptor (Homo sapiens, UniProt P08069)
Test: IGF1-Receptor Tyrosine Kinase Assay
Format: biochemical
Details: ATP 25 μM; FL-peptide 1.5 μM; IGF1-Receptor 14 nM; 60 min room temperature; read-out: IGF-1R IC50
Description: D. IGF1-Receptor Tyrosine Kinase Assay
The assays were performed in U-bottom 384-well plates. The final assay volume was 30 μl prepared from 15 μl additions of enzyme and substrates (fluoresceinated IGF1R substrate peptide and ATP) and test compounds in assay buffer (100 mM HEPES pH 7.4, 10 mM MnCl2, 0.015% Brij35 and 4 mM DTT). The reaction was initiated by the combination of IGF1-receptor with substrates and test compounds. The reaction was incubated at room temperature for 60 min. and terminated by adding 30 μl of 35 mM EDTA to each sample. The reaction mixture was analyzed on the Caliper LabChip 3000 by electrophoretic separation of the fluorescent substrate and phosphorylated product. Inhibition data were calculated by comparison to no enzyme control reactions for 100% inhibition and vehicle-only reactions for 0% inhibition. The final concentration of reagents in the assays is ATP, 25 μM; FL-peptide, 1.5 μM; IGF1-Receptor, 14 nM; and DMSO, 1.6%. Dose response curves were generated to determine the concentration required to inhibit 50% of kinase activity (IC50). Compounds were dissolved at 10 mM in dimethylsulfoxide (DMSO) and evaluated at eleven concentrations, each in duplicate. IC50 values were derived by non-linear regression analysis.

Chain of IGF1-receptor (P08069 31-1367): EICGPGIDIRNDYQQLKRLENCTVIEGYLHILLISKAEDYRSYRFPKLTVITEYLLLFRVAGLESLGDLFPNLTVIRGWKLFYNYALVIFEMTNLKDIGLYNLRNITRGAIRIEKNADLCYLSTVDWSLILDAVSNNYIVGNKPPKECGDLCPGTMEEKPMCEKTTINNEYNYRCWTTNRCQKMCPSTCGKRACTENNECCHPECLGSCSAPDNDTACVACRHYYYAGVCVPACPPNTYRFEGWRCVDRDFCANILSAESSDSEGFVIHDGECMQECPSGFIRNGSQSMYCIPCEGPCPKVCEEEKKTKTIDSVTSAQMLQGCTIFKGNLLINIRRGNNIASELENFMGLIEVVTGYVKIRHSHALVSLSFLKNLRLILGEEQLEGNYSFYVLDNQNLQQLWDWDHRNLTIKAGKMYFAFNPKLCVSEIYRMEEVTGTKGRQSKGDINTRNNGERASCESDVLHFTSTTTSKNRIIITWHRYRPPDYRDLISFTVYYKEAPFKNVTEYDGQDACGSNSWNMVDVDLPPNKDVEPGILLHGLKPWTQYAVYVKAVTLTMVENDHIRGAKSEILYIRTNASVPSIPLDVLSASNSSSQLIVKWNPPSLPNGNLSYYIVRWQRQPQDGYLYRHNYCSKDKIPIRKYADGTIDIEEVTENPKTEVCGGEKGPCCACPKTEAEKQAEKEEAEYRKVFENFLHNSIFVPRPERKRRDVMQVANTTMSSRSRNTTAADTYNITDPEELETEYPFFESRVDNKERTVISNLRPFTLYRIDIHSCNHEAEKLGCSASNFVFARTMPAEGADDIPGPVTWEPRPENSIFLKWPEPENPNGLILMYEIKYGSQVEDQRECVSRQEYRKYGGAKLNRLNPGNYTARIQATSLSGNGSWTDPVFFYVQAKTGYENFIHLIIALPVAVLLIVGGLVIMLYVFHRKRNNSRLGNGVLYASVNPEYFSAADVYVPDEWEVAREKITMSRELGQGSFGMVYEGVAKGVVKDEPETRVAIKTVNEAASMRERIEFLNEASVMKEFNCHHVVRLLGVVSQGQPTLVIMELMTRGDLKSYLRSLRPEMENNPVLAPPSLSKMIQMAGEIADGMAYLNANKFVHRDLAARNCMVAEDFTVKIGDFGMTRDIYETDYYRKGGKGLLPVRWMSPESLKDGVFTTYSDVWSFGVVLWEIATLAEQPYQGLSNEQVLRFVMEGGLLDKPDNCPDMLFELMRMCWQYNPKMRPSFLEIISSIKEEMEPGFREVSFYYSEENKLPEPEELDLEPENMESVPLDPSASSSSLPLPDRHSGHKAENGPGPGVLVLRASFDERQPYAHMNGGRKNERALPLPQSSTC

O=C(NCC(c1ccccc1)c1ccccc1CO)c1nccc(Sc2cnc(Nc3ccccn3)s2)c1F (stereo not drawn) [Example 63, 3-Fluoro-N-(2-(2-(hydroxymethyl)phenyl)-2-phenylethyl)-4-(2-(pyridin-2-ylamino)thiazol-5-ylthio)picolinamide]
IC50: 250 nM

CCC[C@@](O)(CNC(=O)c1nccc(Sc2cnc(Nc3nccc4sccc34)s2)c1F)c1ccccc1 [Example 83, (S)-3-fluoro-N-(2-hydroxy-2-phenylpentyl)-4-(2-(thieno[3,2-c]pyridin-4-ylamino)thiazol-5-ylthio)picolinamide]
IC50: 394 nM

CC(C)(C)CNCC(CNC(=O)c1nccc(Sc2cnc(Nc3ccccn3)s2)c1F)(c1ccccc1)c1ccccc1 [Example 36, 3-Fluoro-N-(3-(neopentylamino)-2,2-diphenylpropyl)-4-(2-(pyridin-2-ylamino)thiazol-5-ylthio)picolinamide]
IC50: 2950 nM

Cc1ccnc(Nc2ncc(Sc3ccnc(C(=O)NCC(c4ccccc4)c4ccccc4C)c3F)s2)c1 (stereo not drawn) [Example 56, 3-fluoro-4-(2-(4-methylpyridin-2-ylamino)thiazol-5-ylthio)-N-(2-phenyl-2-o-tolylethyl)picolinamide]
IC50: 891 nM

CCNCC(CNC(=O)c1nccc(Sc2cnc(Nc3cc(C)ccn3)s2)c1F)(c1ccccc1)c1ccccc1 [Example 69, N-(3-(ethylamino)-2,2-diphenylpropyl)-3-fluoro-4-(2-(4-methylpyridin-2-ylamino)thiazol-5-ylthio)picolinamide]
IC50: 5 nM

O=C(NCCc1c[nH]c2ccc(O)cc12)c1nccc(Sc2cnc(Nc3ccccn3)s2)c1F [Example 33, 3-Fluoro-N-(2-(5-hydroxy-1H-indol-3-yl)ethyl)-4-(2-(pyridin-2-ylamino)thiazol-5-ylthio)picolinamide]
IC50: 693 nM

Cc1ccnc(Nc2ncc(Sc3ccnc(C(=O)NCC(c4ccccc4)c4ccccc4CO)c3F)s2)c1 (stereo not drawn) [Example 65, 3-Fluoro-N-(2-(2-(hydroxymethyl)phenyl)-2-phenylethyl)-4-(2-(4-methylpyridin-2-ylamino)thiazol-5-ylthio)picolinamide]
IC50: 1 nM

(S)-3-Fluoro-N-(2-(2-(hydroxymethyl)phenyl)-2-phenylethyl)-4-(2-(pyridin-2-ylamino)thiazol-5-ylthio)picolinamide and (R)-3-fluoro-N-(2-(2-(hydroxymethyl)phenyl)-2-phenylethyl)-4-(2-(pyridin-2-ylamino)thiazol-5-ylthio)picolinamide [Example 64]
IC50: 316 nM

CCCC(O)(CNC(=O)c1nccc(Sc2cnc(Nc3ccc(CNC(=O)CN(C)C)cn3)s2)c1F)c1ccccc1 (stereo not drawn) [Example 77, 4-(2-(5-((2-(Dimethylamino)acetamido)methyl)pyridin-2-ylamino)thiazol-5-ylthio)-3-fluoro-N-(2-hydroxy-2-phenylpentyl)picolinamide]
IC50: 4 nM

Cc1ccnc(Nc2ncc(Sc3ccnc(C(=O)NCC(CN(C)CCO)(c4ccccc4)c4ccccc4)c3F)s2)c1 [Example 52, 3-Fluoro-N-(3-((2-hydroxyethyl)(methyl)amino)-2,2-diphenylpropyl)-4-(2-(4-methylpyridin-2-ylamino)thiazol-5-ylthio)picolinamide]
IC50: 3 nM

CCCC(O)(CNC(=O)c1nccc(Sc2cnc(Nc3ccc(CNC)cn3)s2)c1F)c1ccccc1 (stereo not drawn) [Example 82, 3-Fluoro-N-(2-hydroxy-2-phenylpentyl)-4-(2-(5-((methylamino)methyl)pyridin-2-ylamino)thiazol-5-ylthio)picolinamide]
IC50: 3 nM

Cc1ccnc(Nc2ncc(Sc3ccnc(C(=O)NCC(c4ccccc4)c4ccccc4Br)c3F)s2)c1 (stereo not drawn) [Example 58, N-(2-(2-bromophenyl)-2-phenylethyl)-3-fluoro-4-(2-(4-methylpyridin-2-ylamino)thiazol-5-ylthio)picolinamide]
IC50: 1520 nM

Cc1ccnc(Nc2ncc(Sc3ccnc(C(=O)NCC(c4ccccc4)c4cccc(CO)c4)c3F)s2)c1 (stereo not drawn) [Example 67, 3-Fluoro-N-(2-(3-(hydroxymethyl)phenyl)-2-phenylethyl)-4-(2-(4-methylpyridin-2-ylamino)thiazol-5-ylthio)picolinamide hydrochloride]
IC50: 288 nM

Cc1ccnc(Nc2ncc(Sc3ccnc(C(=O)NCC(CNC(C)(C)C)(c4ccccc4)c4ccccc4)c3F)s2)c1 [Example 55, N-(3-(tert-butylamino)-2,2-diphenylpropyl)-3-fluoro-4-(2-(4-methylpyridin-2-ylamino)thiazol-5-ylthio)picolinamide]
IC50: 199 nM

Cc1ccnc(Nc2ncc(Sc3ccnc(C(=O)NCC(CN4CCCCC4)(c4ccccc4)c4ccccc4)c3F)s2)c1 [Example 49, N-(2,2-diphenyl-3-(piperidin-1-yl)propyl)-3-fluoro-4-(2-(4-methylpyridin-2-ylamino)thiazol-5-ylthio)picolinamide]
IC50: 886 nM
